These results are taken from US20250051355A1, “COMPOUNDS, COMPOSITIONS, AND METHODS” (ACONCAGUA BIO, INC., priority 2023, published 2025).

The target of experiment [1] is human calcitonin receptor (CTR) and RAMP3 (AMY3) (Homo sapiens, UniProt O60896+P30988). The experiment in a line: Amylin Receptor cAMP Assay I. The experiment is classed as cell-based. The note with it: COS-7/AMY3 cells, cAMP Hi-range Kit, read-out: Amylin Receptor cAMP Stimulation Activity: EC50. An excerpt: Amylin Receptor cAMP Assay I
Sequence of human calcitonin receptor (CTR) and RAMP3 (AMY3) (O60896 24-148, one chain of several): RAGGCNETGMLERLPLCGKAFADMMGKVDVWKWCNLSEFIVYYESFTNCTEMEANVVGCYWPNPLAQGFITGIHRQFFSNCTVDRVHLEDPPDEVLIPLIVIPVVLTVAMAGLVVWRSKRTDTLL
AMYRs are heterodimers of the class B calcitonin (CT) G-protein-coupled receptor (CTR) and receptor activity-modifying proteins (RAMPs). All three RAMPs can interact with the CTR and form AMY1, AMY2, AMY3 with RAMP1, RAMP2 and RAMP3, respectively. Like other class B1 GPCRs, the CT receptor family is canonically coupled to Gs-mediated cAMP production, and measurement of cAMP accumulation has been the primary assay used to determine peptide selectivity and potency.
To optimize functional activity directed toward Gas coupling, COS-7 cells were stably transfected with human calcitonin receptor (CTR) and RAMP3, simultaneously. 100×concentration of compound working solutions were prepared (Agilent Technologies Bravo) with 4-fold serial dilution in 384-well Echo LDV plate (Labcyte, Cat #LP-0200). 100 nL/well 100× concentration of compound working solutions were moved to 384-well white low volume plate (Greiner, Cat #784075) using Labcyte ECHO550. 1×10^5 cells/mL COS-7/CTR or COS-7/AMY3 (HD Biosciences) cell suspensions prepared with assay buffer [DPBS containing 0.5 mM IBMX (Sigma, Cat #15879) and 0.1% BSA (GENVIEW, Cat #FAO16-100 g)], 10 μL cell suspensions were added to each well of previous generated assay plate which already contains 100 nL compound at 100× concentration using ThermoFisher Multidrop Combi (1000 cells/well). Seal the plate and incubate at 37° C. with 5% CO2 for 30 min.
After incubation, the cAMP assay signal was generated using cAMP Hi-range Kit (Cisbio). 5 μL cAMP-d2 working solution was added to each well, followed by 5 μL Anti-cAMP antibody-cryptate working solution which was added to each well using ThermoFisher Multidrop Combi. The samples were then incubated at room temperature for 1 hour protected from light. the fluorescence was read at 665 and 615 nm with Reader PerkinElmer EnVision.

Experiment [2] addresses T1, human calcitonin receptor (CTR) (Homo sapiens, UniProt P30988).
T1 construct: expressed in transfected cells; host or cells: COS-7 (COS7-human CTR Clone #2)
T1 sequence (P30988 25-474): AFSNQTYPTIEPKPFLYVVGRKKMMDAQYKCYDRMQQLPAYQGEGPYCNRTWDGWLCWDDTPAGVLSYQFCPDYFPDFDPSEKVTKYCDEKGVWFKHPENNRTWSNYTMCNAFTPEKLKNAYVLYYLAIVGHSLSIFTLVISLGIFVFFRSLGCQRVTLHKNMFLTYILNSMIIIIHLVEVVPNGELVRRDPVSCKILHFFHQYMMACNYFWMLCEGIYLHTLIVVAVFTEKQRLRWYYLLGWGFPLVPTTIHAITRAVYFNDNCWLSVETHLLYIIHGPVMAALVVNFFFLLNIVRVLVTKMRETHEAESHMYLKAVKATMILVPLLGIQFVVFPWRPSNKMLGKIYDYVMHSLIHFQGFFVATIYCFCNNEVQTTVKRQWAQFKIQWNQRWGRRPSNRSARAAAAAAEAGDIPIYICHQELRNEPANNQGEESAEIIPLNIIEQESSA
Put plainly: Calcitonin receptor (CTR) cAMP Assay. The experiment is classed as cell-based. The note with it: COS7-human CTR Clone #2 cells, cAMP dynamic 2 kit; read-out: Calcitonin Receptor cAMP Stimulation Activity: EC50. The gist of the method: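 COS-7 cells stably expressing human CTR (2000 cells/well) treated with 4-fold serially diluted compounds in HBSS/20 mM HEPES/0.5 mM IBMX/0.1% casein, 30 min at 37° C. cAMP quantified by HTRF (cAMP-d2 plus anti-cAMP cryptate, 1 h RT), fluorescence read at 665 and 615 nm.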

For the molecule `Cc1nnc(-c2c(CCC3CCCOC3)nc3c(c2-c2ccc(C(=O)NCc4ccc(F)c(F)c4)s2)C(=O)N2CCC[C@@H]32)o1` (stereo partly drawn) [Compound 61, N-(3,4-difluorobenzyl)-5-((9aS)-3-(5-methyl-1,3,4-oxadiazol-2-yl)-5-oxo-2-(2-(tetrahydro-2H-pyran-3-yl)ethyl)-7,8,9,9a-tetrahydro-5H-pyrido[2,3-a]pyrrolizin-4-yl)thiophene-2-carboxamide], the results for the half-maximal effective concentration (EC50) in experiment [1] and in experiment [2] were 178 nM and 39 nM, respectively.
The like results for `Cc1nnc(-c2c(CCC3CCOCC3)nc3c(c2-c2cc4ccnc(NCc5ccc(F)c(F)c5)c4s2)C(=O)N2CCC[C@@H]32)o1` [Compound 63] were, in that order, 78.5 nM and 2.8 nM.
In the same order, the values of `Cc1nnc(-c2c(CCc3ccc(F)cc3F)nc3c(c2-c2ccc(C(=O)NCc4ccc(F)c(F)c4)s2)C(=O)N2CCC[C@@H]32)o1` [Compound 42, 5-[(9aS)-2-[2-(2,4-difluorophenyl)ethyl]-3-(5-methyl-1,3,4-oxadiazol-2-yl)-5-oxo-7,8,9,9a-tetrahydropyrido[2,3-a]pyrrolizin-4-yl]-N-[(3,4-difluorophenyl)methyl]thiophene-2-carboxamide] are 114 nM and 14 nM.
The like results for `Cc1nnc(-c2c(COc3ccc(F)cc3)nc3c(c2-c2ccc(C(=O)NCc4ccc(F)c(F)c4)s2)C(=O)N2CCC[C@@H]32)o1` [Compound 7, (S)—N-(3,4-difluorobenzyl)-5-(2-((4-fluorophenoxy)methyl)-3-(5-methyl-1,3,4-oxadiazol-2-yl)-5-oxo-7,8,9,9a-tetrahydro-5H-pyrido[2,3-a]pyrrolizin-4-yl)thiophene-2-carboxamide] were, in that order, 128 nM and 76 nM.
As to `Cc1nnc(-c2c(CCc3ccc(F)cc3)nc3c(c2-c2ccc(C(=O)NCc4ccc(F)c(F)c4)s2)S(=O)(=O)CC3C(C)C)o1` (stereo not drawn) [Compound 19, N-(3,4-difluorobenzyl)-5-(5-(4-fluorophenethyl)-3-isopropyl-6-(5-methyl-1,3,4-oxadiazol-2-yl)-1,1-dioxido-2,3-dihydrothieno[3,2-b]pyridin-7-yl)thiophene-2-carboxamide], the results for the EC50 in experiment [1] and in experiment [2] were 25.3 nM and 5.3 nM, respectively.
The like results for `Cc1nnc(-c2c(CCc3ccc(F)cc3)nc3c(c2-c2ccc(C(=O)NCc4ccc(F)c(F)c4)s2)S(=O)(=O)N2CCC[C@@H]32)o1` [Compound 17, (S)—N-(3,4-difluorobenzyl)-5-(2-(4-fluorophenethyl)-3-(5-methyl-1,3,4-oxadiazol-2-yl)-5,5-dioxido-7,8,9,9a-tetrahydropyrrolo[1′,2′:2,3]isothiazolo[4,5-b]pyridin-4-yl)thiophene-2-carboxamide] were, in that order, 65.8 nM and 5.5 nM.
In the same order, the values of `Cc1nnc(-c2c(CCc3ccc(F)cc3)nc3c(c2-c2ccc(C(=O)NCc4ccc(F)c(F)c4)s2)S(=O)(=O)N[C@H]3C(C)C)o1` [Compound 18, (S)—N-(3,4-difluorobenzyl)-5-(5-(4-fluorophenethyl)-3-isopropyl-6-(5-methyl-1,3,4-oxadiazol-2-yl)-1,1-dioxido-2,3-dihydroisothiazolo[4,5-b]pyridin-7-yl)thiophene-2-carboxamide] are 31.1 nM and 2 nM.
In the same order, the values of `Cc1nnc(-c2c(CCc3ccc(F)cc3)nc3c(c2-c2ccc(C(=O)NCc4ccc(F)c(F)c4)s2)c(=O)n2n3CCC2)o1` [Compound 15, N-(3,4-difluorophenyl)methyl-5-(11-[2-(p-fluorophenyl)ethyl]-10-(5-methyl-1,3,4-oxadiazol-2-yl)-7-oxo-2,6,12-triazatricyclo[6.4.0.0^2,6]dodeca-1(12),8,10-trien-9-yl}-2-thenamide] are 88.4 nM and 17 nM.
For `Cc1nnc(-c2c(CCc3ccc(F)cc3)nc3c(c2-c2ccc(C(=O)NCc4ccc(F)c(F)c4)s2)C(=O)N[C@H]3C(C)C)o1` [Compound 1, N-(3,4-difluorophenyl)methyl-5-{(S)-5-[2-(p-fluorophenyl)ethyl]-3-isopropyl-6-(5-methyl-1,3,4-oxadiazol-2-yl)-1-oxo-2,4-diaza-7-indanyl)-2-thenamide], the EC50 in experiment [1] came to 43.9 nM; in experiment [2], 3.7 nM.
